Laboratory results taken from paper PMC11062922 (Nature Chemical Biology, 2023).

Columns and labels:
ACOX1 = molecular target: T1, ACOX1 (Homo sapiens, UniProt Q15067); assay: Kinobeads two-dose competition binding: ACOX1; details: sheet CATDS matrix 2; Gene Name ACOX1;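 also: competition of compounds with immobilized broad-spectrum kinase inhibitor beads in cell lysate at 100 and 1,000 nM, 45 min at 4 °C, bead-bound protein quantified by label-free MS versus DMSO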
T1 construct: endogenous in cells
T1 sequence (Q15067 1-660): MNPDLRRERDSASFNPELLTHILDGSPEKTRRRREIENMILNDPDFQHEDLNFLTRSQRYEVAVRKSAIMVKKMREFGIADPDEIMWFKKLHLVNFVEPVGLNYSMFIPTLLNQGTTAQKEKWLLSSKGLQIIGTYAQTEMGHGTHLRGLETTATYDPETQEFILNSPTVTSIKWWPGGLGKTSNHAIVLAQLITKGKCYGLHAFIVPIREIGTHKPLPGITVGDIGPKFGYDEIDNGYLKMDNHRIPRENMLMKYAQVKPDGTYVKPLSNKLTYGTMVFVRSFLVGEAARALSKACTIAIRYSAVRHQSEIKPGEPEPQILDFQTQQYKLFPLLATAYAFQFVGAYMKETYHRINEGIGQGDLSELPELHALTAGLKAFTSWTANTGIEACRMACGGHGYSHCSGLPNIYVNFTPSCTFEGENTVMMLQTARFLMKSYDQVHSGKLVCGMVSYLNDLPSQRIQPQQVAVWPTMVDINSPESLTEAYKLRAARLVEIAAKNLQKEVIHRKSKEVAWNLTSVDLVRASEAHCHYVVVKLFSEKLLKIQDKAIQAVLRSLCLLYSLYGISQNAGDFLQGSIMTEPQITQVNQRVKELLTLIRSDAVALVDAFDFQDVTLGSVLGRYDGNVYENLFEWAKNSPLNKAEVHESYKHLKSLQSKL

AAK1 = molecular target: T2, AAK1 (Homo sapiens, UniProt Q2M2I8); assay: Kinobeads two-dose competition binding: AAK1; details: for CATDS: sheet CATDS matrix 2, Gene Name AAK1; for potency estimated from few doses: sheet "Kinobeads Drugmatrix - all", unit inferred, same values below 1000 recur in sheet "nanomolar", read-out: Kinobeads Drugmatrix - all: apparent Kd, AAK1;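 as to all read-outs here: kinobeads competition pulldown from cell lysate, compound preincubated 45 min at 4 °C, bead-bound protein measured by label-free mass spectrometry against DMSO vehicle control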
T2 construct: to maximize the representation of endogenous proteins; endogenous in cells

ABL1 = ABL1 (Homo sapiens, UniProt P00519); assay: Kinobeads two-dose competition binding: ABL1; details: sheet CATDS matrix 2; Gene Name ABL1
ABL2 = molecular target: T3, ABL2 (Homo sapiens, UniProt P42684); assay: Kinobeads two-dose competition binding: ABL2; details: sheet CATDS matrix 2; Gene Name ABL2
T3 construct: endogenous in cells

ACAD11 = molecular target: T4, ACAD11 (Homo sapiens, UniProt Q709F0); assay: Kinobeads two-dose competition binding: ACAD11; details: sheet CATDS matrix 2; Gene Name ACAD11
T4 construct: endogenous in cells
T4 sequence (Q709F0 1-780): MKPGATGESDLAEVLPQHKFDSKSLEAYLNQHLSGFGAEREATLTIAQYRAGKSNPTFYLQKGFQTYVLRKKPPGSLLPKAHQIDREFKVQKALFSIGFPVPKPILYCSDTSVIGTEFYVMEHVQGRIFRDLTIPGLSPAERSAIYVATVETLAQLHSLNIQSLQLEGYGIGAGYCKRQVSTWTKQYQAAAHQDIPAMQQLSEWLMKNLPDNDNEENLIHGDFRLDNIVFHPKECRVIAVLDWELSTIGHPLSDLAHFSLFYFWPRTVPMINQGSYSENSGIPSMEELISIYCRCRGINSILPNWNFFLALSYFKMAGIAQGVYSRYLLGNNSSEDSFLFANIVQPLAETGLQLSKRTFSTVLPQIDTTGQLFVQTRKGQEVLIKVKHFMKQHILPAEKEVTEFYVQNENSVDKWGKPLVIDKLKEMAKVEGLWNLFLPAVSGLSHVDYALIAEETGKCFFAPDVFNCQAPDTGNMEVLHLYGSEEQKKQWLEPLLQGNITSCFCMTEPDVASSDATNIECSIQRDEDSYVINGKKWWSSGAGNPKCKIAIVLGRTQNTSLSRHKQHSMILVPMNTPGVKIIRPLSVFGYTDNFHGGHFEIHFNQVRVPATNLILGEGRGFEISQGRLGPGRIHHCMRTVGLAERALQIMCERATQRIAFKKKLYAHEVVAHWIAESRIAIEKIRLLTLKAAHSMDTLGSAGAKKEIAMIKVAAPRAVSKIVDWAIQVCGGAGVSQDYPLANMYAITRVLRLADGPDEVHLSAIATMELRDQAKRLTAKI

ABL1, sequence (P00519 28-1130 limits assumed): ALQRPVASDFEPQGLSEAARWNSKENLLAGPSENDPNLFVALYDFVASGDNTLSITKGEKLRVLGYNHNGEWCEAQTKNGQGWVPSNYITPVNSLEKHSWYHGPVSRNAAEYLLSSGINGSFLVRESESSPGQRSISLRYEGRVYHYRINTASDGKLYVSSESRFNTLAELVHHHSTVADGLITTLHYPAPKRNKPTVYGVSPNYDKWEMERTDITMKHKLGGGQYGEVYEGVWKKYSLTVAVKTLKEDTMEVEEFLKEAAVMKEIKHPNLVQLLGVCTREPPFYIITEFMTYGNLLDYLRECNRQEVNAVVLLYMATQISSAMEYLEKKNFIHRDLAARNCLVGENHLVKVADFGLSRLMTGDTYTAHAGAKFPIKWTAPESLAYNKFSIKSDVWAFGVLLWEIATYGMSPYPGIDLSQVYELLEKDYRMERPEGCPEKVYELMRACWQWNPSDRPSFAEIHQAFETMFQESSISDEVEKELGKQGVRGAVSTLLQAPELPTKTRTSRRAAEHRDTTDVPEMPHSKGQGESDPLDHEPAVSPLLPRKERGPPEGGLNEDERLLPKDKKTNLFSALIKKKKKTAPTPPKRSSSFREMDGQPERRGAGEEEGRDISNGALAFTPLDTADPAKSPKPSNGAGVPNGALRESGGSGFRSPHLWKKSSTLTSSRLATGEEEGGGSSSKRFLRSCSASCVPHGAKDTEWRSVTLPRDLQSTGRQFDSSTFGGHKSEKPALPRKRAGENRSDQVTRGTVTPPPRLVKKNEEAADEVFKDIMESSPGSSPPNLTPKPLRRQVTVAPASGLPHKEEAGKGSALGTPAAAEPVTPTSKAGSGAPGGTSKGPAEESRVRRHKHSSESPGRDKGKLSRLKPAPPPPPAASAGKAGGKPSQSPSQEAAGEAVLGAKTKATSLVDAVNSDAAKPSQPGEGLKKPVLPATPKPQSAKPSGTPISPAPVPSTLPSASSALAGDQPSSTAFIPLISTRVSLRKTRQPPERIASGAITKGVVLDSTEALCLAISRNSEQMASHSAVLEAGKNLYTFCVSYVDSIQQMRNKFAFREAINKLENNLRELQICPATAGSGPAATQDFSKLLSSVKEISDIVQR
T3 sequence (P42684 whole entry): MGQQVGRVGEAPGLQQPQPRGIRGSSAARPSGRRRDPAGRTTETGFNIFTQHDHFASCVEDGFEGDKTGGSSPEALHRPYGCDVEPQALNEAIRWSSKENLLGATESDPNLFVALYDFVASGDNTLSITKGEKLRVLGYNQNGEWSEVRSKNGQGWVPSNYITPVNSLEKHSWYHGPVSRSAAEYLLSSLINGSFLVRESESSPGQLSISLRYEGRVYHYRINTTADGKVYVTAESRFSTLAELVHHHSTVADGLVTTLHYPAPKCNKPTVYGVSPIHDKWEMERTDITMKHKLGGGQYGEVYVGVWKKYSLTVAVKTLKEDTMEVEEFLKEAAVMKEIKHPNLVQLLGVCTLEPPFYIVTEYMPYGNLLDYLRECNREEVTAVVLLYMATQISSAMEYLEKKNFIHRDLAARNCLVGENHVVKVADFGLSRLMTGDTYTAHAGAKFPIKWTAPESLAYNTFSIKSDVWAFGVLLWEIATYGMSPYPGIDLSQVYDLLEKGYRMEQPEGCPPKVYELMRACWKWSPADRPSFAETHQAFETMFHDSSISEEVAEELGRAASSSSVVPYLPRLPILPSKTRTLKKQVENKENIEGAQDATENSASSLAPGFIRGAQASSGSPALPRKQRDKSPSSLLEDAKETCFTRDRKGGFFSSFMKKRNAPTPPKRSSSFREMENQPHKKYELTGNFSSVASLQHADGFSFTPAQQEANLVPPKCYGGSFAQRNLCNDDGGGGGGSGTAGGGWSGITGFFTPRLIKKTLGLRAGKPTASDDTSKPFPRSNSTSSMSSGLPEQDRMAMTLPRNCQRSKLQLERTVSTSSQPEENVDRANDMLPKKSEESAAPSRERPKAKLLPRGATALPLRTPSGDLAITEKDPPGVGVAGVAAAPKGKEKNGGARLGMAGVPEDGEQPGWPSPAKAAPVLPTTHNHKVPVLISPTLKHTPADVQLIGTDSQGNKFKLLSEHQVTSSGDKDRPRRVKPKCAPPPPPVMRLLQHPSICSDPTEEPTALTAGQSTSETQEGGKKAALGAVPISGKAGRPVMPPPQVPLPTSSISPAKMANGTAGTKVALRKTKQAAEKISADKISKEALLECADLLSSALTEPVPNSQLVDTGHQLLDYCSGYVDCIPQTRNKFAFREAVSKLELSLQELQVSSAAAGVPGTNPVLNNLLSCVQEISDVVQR
T2 sequence (Q2M2I8 whole entry): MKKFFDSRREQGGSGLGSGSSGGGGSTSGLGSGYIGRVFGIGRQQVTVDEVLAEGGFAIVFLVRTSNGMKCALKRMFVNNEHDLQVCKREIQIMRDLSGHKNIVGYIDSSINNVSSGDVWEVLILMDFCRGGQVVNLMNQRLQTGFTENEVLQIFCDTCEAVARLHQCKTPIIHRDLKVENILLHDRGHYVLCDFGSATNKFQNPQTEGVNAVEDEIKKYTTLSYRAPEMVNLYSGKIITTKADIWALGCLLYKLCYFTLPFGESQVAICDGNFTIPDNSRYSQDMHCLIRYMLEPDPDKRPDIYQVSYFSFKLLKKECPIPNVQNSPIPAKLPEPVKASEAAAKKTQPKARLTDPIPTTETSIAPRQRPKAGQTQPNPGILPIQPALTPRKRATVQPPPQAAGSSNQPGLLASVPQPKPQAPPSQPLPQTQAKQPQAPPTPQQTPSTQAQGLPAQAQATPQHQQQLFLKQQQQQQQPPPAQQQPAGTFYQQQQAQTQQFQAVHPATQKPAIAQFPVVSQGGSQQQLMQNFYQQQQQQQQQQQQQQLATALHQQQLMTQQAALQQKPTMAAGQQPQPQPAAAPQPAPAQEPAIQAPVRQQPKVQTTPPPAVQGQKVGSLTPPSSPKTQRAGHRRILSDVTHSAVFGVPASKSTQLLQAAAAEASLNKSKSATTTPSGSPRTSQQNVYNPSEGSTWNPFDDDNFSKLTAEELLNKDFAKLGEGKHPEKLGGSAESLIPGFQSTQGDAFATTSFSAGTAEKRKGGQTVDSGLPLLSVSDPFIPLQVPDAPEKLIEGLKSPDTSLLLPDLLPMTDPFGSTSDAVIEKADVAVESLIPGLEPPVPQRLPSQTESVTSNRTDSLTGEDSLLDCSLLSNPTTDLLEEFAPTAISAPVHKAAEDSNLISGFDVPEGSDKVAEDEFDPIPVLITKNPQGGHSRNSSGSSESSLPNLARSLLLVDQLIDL

## COc1cc(N2CCC(N3CCN(C)CC3)CC2)ccc1Nc1ncc(Cl)c(Nc2ccccc2P(C)(C)=O)n1 [Brigatinib, reference compound]
ACOX1
  CATDS: 0
AAK1
  CATDS: 0.01731
ABL1
  CATDS: 0
ABL2
  CATDS: 0
ACAD11
  CATDS: 0

## COc1cc2ncn(-c3cc(OCC4CCCO4)c(C(N)=O)s3)c2cc1OC (stereo not shown) [GSK204607A]
ACOX1
  CATDS: 0
AAK1
  CATDS: 0
ABL1
  CATDS: 0
ABL2
  CATDS: 0
ACAD11
  CATDS: 0

## O=c1cc(N2CCOCC2)nc2n(Cc3cccc(C(F)(F)F)c3)ccn12 [GSK2297543A]
ACOX1
  CATDS: 0
AAK1
  CATDS: 0
ABL1
  CATDS: 0
ABL2
  CATDS: 0
ACAD11
  CATDS: 0

## Nc1ncc(-c2ccc3nccc(-c4ccncc4)c3c2)cc1S(=O)(=O)N1CCCCC1 [GSK1693850A]
ACOX1
  CATDS: 0
AAK1
  CATDS: 0
ABL1
  CATDS: 0
ABL2
  CATDS: 0
ACAD11
  CATDS: 0

## NC(CNC(=O)c1cc(Br)c(-c2ccnc3[nH]ccc23)s1)c1ccccc1 (stereo not shown) [GSK1322949A]
ACOX1
  CATDS: 0
AAK1
  potency estimated from few doses: > 1000 nM
  CATDS: 0
ABL1
  CATDS: 0
ABL2
  CATDS: 0
ACAD11
  CATDS: 0

## NCC(NC(=O)c1cc(-c2ccnc3[nH]ccc23)cs1)c1ccccc1 (stereo not shown) [GSK1229959A]
ACOX1
  CATDS: 0
AAK1
  potency estimated from few doses: 79.6 nM
  CATDS: 0.03638
ABL1
  CATDS: 0
ABL2
  CATDS: 0
ACAD11
  CATDS: 0

## CCCS(=O)(=O)Nc1ccc(F)c(-n2cc(-c3cncc(OC)c3)nn2)c1F [BI00865461]
ACOX1
  CATDS: 0
AAK1
  CATDS: 0
ABL1
  CATDS: 0
ABL2
  CATDS: 0
ACAD11
  CATDS: 0

## CCNCC(Cc1ccccc1)NC(=O)c1cc(Br)c(-c2ccnc3[nH]ccc23)s1 (stereo not shown) [GSK1383280A]
ACOX1
  CATDS: 0
AAK1
  CATDS: 0
ABL1
  CATDS: 0
ABL2
  CATDS: 0
ACAD11
  CATDS: 0

## Cc1cccc(Nc2nc(NCCN)ncc2C(N)=O)c1 [GSK1292139B]
ACOX1
  CATDS: 0
AAK1
  potency estimated from few doses: 164 nM
  CATDS: 0.21
ABL1
  CATDS: 0
ABL2
  CATDS: 0
ACAD11
  CATDS: 0

## CCCc1cc(N2CCCN(C)CC2)nc2sc3c(N)ncnc3c12 [BI00604564]
ACOX1
  CATDS: 0
AAK1
  potency estimated from few doses: > 1000 nM
  CATDS: 0
ABL1
  CATDS: 0
ABL2
  CATDS: 0
ACAD11
  CATDS: 0

## O=c1cc(N2CCOCC2)nc2n(Cc3cccc(Cl)c3)ccn12 [GSK2296823A]
ACOX1
  CATDS: 0
AAK1
  CATDS: 0
ABL1
  CATDS: 0
ABL2
  CATDS: 0
ACAD11
  CATDS: 0

## Nc1nc(Nc2ccccc2)cc(-c2ccc3c(N)n[nH]c3c2)n1 [GSK2225749A]
ACOX1
  CATDS: 0
AAK1
  CATDS: 0.2514
ABL1
  CATDS: 0
ABL2
  CATDS: 0
ACAD11
  CATDS: 0

## Cn1cnc2c(F)c(Nc3ccc(Br)cc3F)c(C(=O)NOCCO)cc21 [Binimetinib, reference compound]
ACOX1
  CATDS: 0
AAK1
  CATDS: 0
ABL1
  CATDS: 0
ABL2
  CATDS: 0
ACAD11
  CATDS: 0

## NCCC(NC(=O)c1cc(Br)c(-c2ccnc3[nH]ccc23)s1)c1ccccc1 (stereo not shown) [GSK1307810A]
ACOX1
  CATDS: 0
AAK1
  CATDS: 0
ABL1
  CATDS: 0
ABL2
  CATDS: 0
ACAD11
  CATDS: 0

## Cc1cn(-c2cc(NC(=O)c3ccc4c(c3)CN(c3cncnc3)C[C@@H]4C)cc(C(F)(F)F)c2)cn1 [Compound D2202-1]
ACOX1
  CATDS: 0
AAK1
  CATDS: 0
ABL1
  CATDS: 0
ABL2
  CATDS: 0
ACAD11
  CATDS: 0

## COc1cc2ncnc(Nc3cccc(Cl)c3F)c2cc1O[C@H]1CC[C@@]2(CC1)NCCNC2=O [BI00113608]
ACOX1
  CATDS: 0
AAK1
  CATDS: 0
ABL1
  CATDS: 0
ABL2
  CATDS: 0
ACAD11
  CATDS: 0

## CC(=O)c1cccc(NC(=O)NC2CCN(c3ccnc(Nc4ccc(F)cc4)n3)C2)c1 (stereo not shown) [GSK1379710A]
ACOX1
  CATDS: 0
AAK1
  CATDS: 0
ABL1
  CATDS: 0
ABL2
  CATDS: 0
ACAD11
  CATDS: 0

## COc1cc(C)c(NC(=O)CN(C)C)cc1Nc1nc(Nc2cccc(F)c2C(N)=O)c2cc[nH]c2n1 [GSK2213727A]
ACOX1
  CATDS: 0
AAK1
  CATDS: 0
ABL1
  CATDS: 0
ABL2
  CATDS: 0
ACAD11
  CATDS: 0

## Cc1c(Cn2c(C)nn3c(=O)cc(N4CCOC(C)C4)nc23)cccc1C(F)(F)F (stereo not shown) [GSK2344444A]
ACOX1
  CATDS: 0
AAK1
  CATDS: 0
ABL1
  CATDS: 0
ABL2
  CATDS: 0
ACAD11
  CATDS: 0

## Cc1ccc(-n2nc(C(C)(C)C)cc2NC(=O)Nc2ccc(OCCN3CCOCC3)cc2)cc1 [BIRB0876BS]
ACOX1
  CATDS: 0
AAK1
  CATDS: 0
ABL1
  CATDS: 0
ABL2
  CATDS: 0
ACAD11
  CATDS: 0

## Cc1cccc(-c2cc(Nc3ccncc3)c3ccccc3n2)n1 [GSK223675A]
ACOX1
  CATDS: 0
AAK1
  CATDS: 0
ABL1
  CATDS: 0
ABL2
  CATDS: 0
ACAD11
  CATDS: 0

## Cc1occc1-c1nc(N)c(OC[C@@H](N)Cc2c[nH]c3ccccc23)cc1-c1cc2c(C)n[nH]c2cn1 [GSK1660450B]
ACOX1
  CATDS: 0
AAK1
  potency estimated from few doses: > 1000 nM
  CATDS: 0
ABL1
  CATDS: 0
ABL2
  CATDS: 0
ACAD11
  CATDS: 0

## CCCN1CCC(Oc2cc(Nc3nc(Nc4cccc(F)c4C(N)=O)c4cc[nH]c4n3)c(OC)cc2Cl)CC1 [GSK1713088A]
ACOX1
  CATDS: 0
AAK1
  CATDS: 0
ABL1
  CATDS: 0
ABL2
  CATDS: 0
ACAD11
  CATDS: 0

## N#Cc1cccc(C(=O)NC2CCN(c3ccnc(Nc4ccc(F)cc4)n3)C2)c1 (stereo not shown) [GSK1379708A]
ACOX1
  CATDS: 0
AAK1
  CATDS: 0
ABL1
  CATDS: 0
ABL2
  CATDS: 0
ACAD11
  CATDS: 0

## COc1cc(N2CCN(C(C)C)CC2)ccc1Nc1nc(Nc2cccc(F)c2C(=O)O)c2cc[nH]c2n1 [GSK1819799A]
ACOX1
  CATDS: 0
AAK1
  CATDS: 0
ABL1
  CATDS: 0
ABL2
  CATDS: 0
ACAD11
  CATDS: 0

## O=c1[nH]c2cc(Nc3ccc(F)cc3F)ccc2n1CC1CCCCC1 [BI00601000]
ACOX1
  CATDS: 0
AAK1
  CATDS: 0
ABL1
  CATDS: 0
ABL2
  CATDS: 0
ACAD11
  CATDS: 0

## COc1ccc(Nc2nccc(N3CCC(NC(=O)c4cccc(C#N)c4)C3)n2)cc1 (stereo not shown) [GSK1379730A]
ACOX1
  CATDS: 0
AAK1
  CATDS: 0
ABL1
  CATDS: 0
ABL2
  CATDS: 0
ACAD11
  CATDS: 0

## Nc1nc(-c2ccc3c(N)n[nH]c3c2)cc(N2CCCCC2)n1 [GSK2228768A]
ACOX1
  CATDS: 0
AAK1
  CATDS: 0.1964
ABL1
  CATDS: 0
ABL2
  CATDS: 0
ACAD11
  CATDS: 0

## Cc1cc(N2CCC(NS(=O)(=O)c3ccc(F)cc3)CC2)nc(Nc2cccc(C#N)c2)n1 [GSK1653537A]
ACOX1
  CATDS: 0
AAK1
  CATDS: 0
ABL1
  CATDS: 0
ABL2
  CATDS: 0
ACAD11
  CATDS: 0

## NC(=O)c1cccnc1COc1cc(-c2ccc(N3CCOCC3)nc2)cc2ncccc12 [BI01125081]
ACOX1
  CATDS: 0
AAK1
  CATDS: 0
ABL1
  CATDS: 0
ABL2
  CATDS: 0
ACAD11
  CATDS: 0

## COc1ccc(Nc2nccc(N3CCC(NC(=O)c4cc5ccccc5s4)C3)n2)cc1 (stereo not shown) [GSK1379738A]
ACOX1
  CATDS: 0
AAK1
  CATDS: 0
ABL1
  CATDS: 0
ABL2
  CATDS: 0
ACAD11
  CATDS: 0
